The values that follow come from ChEMBL document CHEMBL5257051, “Integrasone Derivatives Isolated from Lepteutypa sp. KT4162 and Their Anti-HIV-1 Integrase Activity” (J Nat Prod, 2023).

Where only a bound is given, the exact number is not on record here.

Data set [1] is described as follows: Inhibition of HIV-1 Integrase transfected in human HEK293T cells measured after 48 hrs by bright-glo luciferase assay. Type of data set: cell-based. Particulars: Human immunodeficiency virus 1, HEK-293T.
Data set [2] can be described thus: Cytotoxicity against human HEK293T cells assessed as cell growth inhibition measured for 30 mins by WST assay. The format is toxicity, cell-based, HEK-293T.
Data set [3] in a line: Inhibition of HIV-1 Integrase transfected in human HEK293T cells measured after 48 hrs by luminometer analysis. The format is cell-based, Human immunodeficiency virus 1.
The nature of data set [4]: Cytotoxicity against human HEK293T cells assessed as cell growth inhibition by MTT assay. The format is toxicity, cell-based, HEK-293T. On the technique in general: Formazan colour is commonly taken as a measure of viable cells.

Broadly, the IC50 is the midpoint of a concentration-inhibition curve. The low end stands for inhibition by little substance, the high end for a need for much substance. By CC50 is commonly meant the concentration at which the toxic effect on the cells reaches its halfway point. Consider `CCCCCCCCC(=O)Cc1occ2c1[C@@H](O)[C@@H]1O[C@@H]1[C@@H]2O`, for which it took 40 µM to reach half-maximal inhibition in data set [1] (IC50). Besides, in data set [2], the half-maximal cytotoxic concentration (CC50) at 0.5 h is greater than 250 µM.

In data set [1], `CCCCCCCCC(=O)C[C@H]1OCC2=C1[C@@H](O)[C@@H]1O[C@@H]1[C@@H]2O` returned an IC50 of 95 µM. Also, the CC50 at 0.5 h in data set [2] was greater than 250 µM.

In turn, `CCCCCCCCC(=O)C[C@H]1OC(=O)C2=C1[C@@H](O)[C@@H]1O[C@@H]1[C@@H]2O` displayed an IC50 in data set [1] of 56 µM. Moreover, in data set [2], the half-maximal cytotoxic concentration (CC50) at 0.5 h was greater than 250 µM.

Take `CCCCCCCCC(=O)C[C@@H]1OC(=O)C2=C1[C@@H](O)[C@@H]1O[C@@H]1[C@@H]2O`: inhibition in data set [1] was half-maximal at 2.5 µM (IC50). For the same compound, in data set [2], the half-maximal cytotoxic concentration (CC50) at 0.5 h was greater than 250 µM.

`O=C(CCCCCCCCO)C[C@H]1OCC2=C1[C@@H](O)[C@@H]1O[C@@H]1[C@@H]2O`: half-maximal inhibition in data set [1] (IC50) was put at 112 µM. In data set [2], the CC50 at 0.5 h is greater than 250 µM.

In turn, `COc1cc2c(cc1Cc1cccc(Cl)c1F)c(=O)c(C(=O)O)cn2[C@H](CO)C(C)C` [ELVITEGRAVIR] displayed a half-inhibitory concentration (IC50) in data set [3] of 3.8 µM. Moreover, the CC50 in data set [4] is greater than 250 µM.
